# Test results from patent publication US9913812B2, “Methods for the treatment of skin neoplasms” (TEIKOKU PHARMA USA, INC., priority 2011, dated 2018).
# Entries after “also recorded” stand apart in the source; their conditions may differ. Like-named read-outs stand apart in the source and are kept apart here.
# Assays:
# [1] = tested on: SKMEL28 human melanoma cell line; assay: SKMEL28 melanoma xenograft tumor volume / growth in athymic mice; conditions: for tumor growth rates (in words) / tumor volume / tumor growth on the last day of the experiment (in words): compared to the no treatment group
# Description: The SKMEL28 human melanoma cell line was obtained from ATCC and grown according to the vendor's instructions until a log growth phase was obtained. The cells were harvested from the culture vessel, washed once and re-suspended in serum free medium and matrigel mixed at a 1:1 ratio.
# Female athymic (nu/nu) mice were used for in vivo animal studies. The mice were 7-8 weeks old at the time of tumor implantation. Six groups of mice were included in the study, with 10 animals in each group.
# Mice were inoculated subcutaneously in the scapular area in a volume of 0.2 mL containing ˜10×10^6 SKMEL28 cells.
# Tumor dimensions were measured twice a week with digital calipers and tumor volumes were calculated from the dimensions with the formula: Tumor Volume (m)=(a^2×b/2); where “a” was the smallest dimension and “b” was the largest dimension. […] Test article treatment was initiated on the same day as assignment to treatment groups. Tumor dimensions were measured and tumor volumes calculated every three days (at the same time as patch removal and application) for 21 days. Tumor volumes were also transformed into percent change in tumor volume using the formula: Percent Change TV=(TVi−TVo)/TVo×100%; where TV was tumor volume, TVi was the tumor volume at the measurement time and TVo was the initial tumor volume. Differences between treatment groups for both the raw tumor volumes and percent changes in tumor volume versus time data sets were evaluated with Two-way ANOVAs. Pair-wise differences between the no treatment and test article treatment groups on each measurement day were evaluated with post hoc Bonferroni's T-tests. In order to evaluate the growth rates of the tumors between treatments, straight lines were fitted through the different data sets (percent change in tumor volumes versus time) by least squares regression. Slopes of the lines were compared initially between all groups and then in a pair-wise fashion between the “no treatment” and “test article” treated groups using an F-test. In all cases, P values less than 0.05 were considered significant.
# Test article administrations were initiated on the same day as treatment group assignments and according to the Experimental Grouping Table. Rasagiline administration consisted of either oral gavage (15 mg/kg PO, daily for 21 days) or topical transdermal patch treatment. Cisplatin was administered once-weekly via intraperitoneal injection. Transdermal patches were applied to the intrascapular (i.e., directly over the tumor) and chest areas and maintained in position with a single BandAid™. Fresh patches were applied to the same locations every third day. The skin was cleaned prior to the first patch application with clorehexadene and as necessary prior to repeat applications. […] Mice were conscious and lightly restrained for patch removal and application. The patches were 0.75 or 1.2 in^2.
# [2] = Body weights of tumor-bearing mice during treatment; type: in vivo; conditions: for Difference in body weight (BW), Vehicle vs. Rasagiline PO / Difference in percent change in body weight (% BW), Vehicle vs. Rasagiline PO: 15 mg/kg PO daily
# Method: Body weights were measured prior to dosing and every three days concurrent with tumor measurements for both patch removal/application and oral dosing. Body weights were transformed into percent change in body weight using the formula: […] […] Cisplatin was administered once-weekly via intraperitoneal injection.
# [3] = Survival / mortality of tumor-bearing mice during treatment; type: in vivo
# Method: The percentage of animal mortality and time of death was recorded for every group in the study. Animals were defined as moribund and euthanized if one or more of the following criteria were met: prolonged or excessive pain or distress as defined by clinical observations such as: prostration, hunched posture, paralysis/paresis, distended abdomen, ulcerations, abscesses, seizures and/or hemorrhages; loss of more than 20% of their body weight; if the tumor volumes exceeded 2,000 mm^3 or the tumors ulcerated, bled or produced exudates.
# Survival of the animals was recorded for the entire experiment. If an animal died or was euthanized due to morbidity during the experiment, its day of death was designated as “1”. If an animal survived the entire time course of the experiment, the last day of observation was designated as a “0”. Survival data was analyzed using a Kaplan-Meier Survival analysis and survival curves were compared using a Log-rank test. P values less than 0.05 were considered significant.
# in vivo = conditions: athymic nude, mouse, po, 15 mg/kg
# Method: At the end of the 21-day treatment duration, 2 animals from each group were euthanized at each of the following time points by isoflurane inhalation (0.5, 1, 2, 4, 8, and 24 hours after the last administration of the test articles including the application of fresh transdermal patches). For the 15 mg/kg PO Rasagiline group, two mice were bled twice (cheek bleed and terminal cardiac) so that ten mice could supply blood samples for six time points. Blood samples were collected from these animals via cardiac puncture into blood collection tubes containing lithium heparin. The blood samples were processed within 30 minutes of collection by centrifugation to prepare plasma samples. The plasma was separated from the cellular fraction and frozen on dry ice. Plasma samples were stored at −80° C. until they were shipped to an analytical laboratory designated by the Sponsor.
# To compare rasagiline exposure by both dosing routes, blood was collected from two animals at each time point by sparse sampling techniques via cardiocentesis prior to euthanasia. Two samples were collected each from two animals in the oral dose group by collecting the first sample from the submandibular vein at 0.25 hours and cardiocentesis at eight hours. Blood was collected from animals administered oral rasagiline at 0.25, 0.5, 1, 2, 4 and 8 hours after the last oral dose. Animals administered the transdermal patches had blood collected at 0.5, 1, 2, 4, and 24 hours on the last application day. Blood collected from animals in the naïve, vehicle, and placebo patch groups determined baseline values and were used for pre-dose levels. […] Mean values for each time point within the rasagiline groups were used to calculate the mean AUC(0-t) value. The AUC(0-8) derived for the oral rasagiline group was multiplied by three to estimate the AUC(0-24) exposure. The ratio of AUC(0-24) for each of the baseline transdermal groups was divided by the estimated oral AUC(0-24) to compare exposures between the two dosing routes.
# [4] = oral administration (0.45 mg/kg), cited from earlier work
# [5] = oral gavage 15 mg/kg, listed as rasagiline mesylate, 15 mg/kg
# [6] = oral gavage 15 mg/kg, listed as rasagiline, 15 mg/kg
structure (smiles),measurement,setting,value
N.N.[Cl][Pt][Cl] [Cisplatin],"SLOPE, best-fit value of linear fit to percent changes in tumor volume versus time",[1]; 10 mg/kg IP every 7 days,13.16
same,tumor growth rates (in words),[1]; 10 mg/kg IP,significantly slowed; also recorded: significantly reduced tumor growth rates
same,reduction in the percent change in tumor volumes,"[1]; 10 mg/kg IP, compared to the oral vehicle treatment, prior to death of the majority of the animals",49%
same,body weight loss (in words),"[2]; 10 mg/kg IP, versus any other treatment group",greater body weight loss
same,survival versus No Treatment group (Logrank test; in words),[3]; 10 mg/kg IP every 7 days,Yes
same,animals that died,"[3]; 10 mg/kg IP every 7 days, group of 10, deaths on Days 13-17",7 out of the 10
"C#CCNC1CCc2ccccc21 (stereo not shown) [Rasagiline, N-propargyl-1-aminoindan]","SLOPE, best-fit value of linear fit to percent changes in tumor volume versus time","[1]; 15 mg/kg PO daily, 21 days",26.64
same,"Difference in percent change in tumor volume (% TV), Vehicle vs. Rasagiline 15 mg/kg PO","[1]; Day 1, 15 mg/kg PO daily",0.0000%
same,"Difference in tumor volume (TV), Vehicle vs. Rasagiline (15 mg/kg PO)","[1]; Day 1, 15 mg/kg PO daily",−0.2606
same,"Difference in percent change in tumor volume (% TV), Vehicle vs. Rasagiline 15 mg/kg PO","[1]; Day 4, 15 mg/kg PO daily",−12.56%
same,"Difference in tumor volume (TV), Vehicle vs. Rasagiline (15 mg/kg PO)","[1]; Day 4, 15 mg/kg PO daily",−15.03
same,"Difference in percent change in tumor volume (% TV), Vehicle vs. Rasagiline 15 mg/kg PO","[1]; Day 7, 15 mg/kg PO daily",−36.19%
same,"Difference in tumor volume (TV), Vehicle vs. Rasagiline (15 mg/kg PO)","[1]; Day 7, 15 mg/kg PO daily",−40.95
same,"Difference in percent change in tumor volume (% TV), Vehicle vs. Rasagiline 15 mg/kg PO","[1]; Day 10, 15 mg/kg PO daily",−42.92%
same,"Difference in tumor volume (TV), Vehicle vs. Rasagiline (15 mg/kg PO)","[1]; Day 10, 15 mg/kg PO daily",−50.83
same,"Difference in percent change in tumor volume (% TV), Vehicle vs. Rasagiline 15 mg/kg PO","[1]; Day 13, 15 mg/kg PO daily",−71.82%
same,"Difference in tumor volume (TV), Vehicle vs. Rasagiline (15 mg/kg PO)","[1]; Day 13, 15 mg/kg PO daily",−92.36
same,"Difference in percent change in tumor volume (% TV), Vehicle vs. Rasagiline 15 mg/kg PO","[1]; Day 16, 15 mg/kg PO daily",−98.35%
same,"Difference in tumor volume (TV), Vehicle vs. Rasagiline (15 mg/kg PO)","[1]; Day 16, 15 mg/kg PO daily",−128.8
same,"Difference in percent change in tumor volume (% TV), Vehicle vs. Rasagiline 15 mg/kg PO","[1]; Day 22, 15 mg/kg PO daily",−153.3%
same,"Difference in tumor volume (TV), Vehicle vs. Rasagiline (15 mg/kg PO)","[1]; Day 22, 15 mg/kg PO daily",−154.4
same,tumor volume / tumor growth on the last day of the experiment (in words),"[1]; oral gavage 15 mg/kg, 15 mg/kg",significantly reduced tumor volume
same,tumor growth rates (in words),[1]; [5],significantly reduced absolute tumor volumes as well as tumor growth rates
same,tumor volume / tumor growth on the last day of the experiment (in words),[1]; [5],significantly reduced absolute tumor volumes
same,tumor growth rates (in words),[1]; [6],significantly slowed; also recorded: significantly reduced tumor growth rates
same,tumor volume / tumor growth on the last day of the experiment (in words),[1]; [6],significant reductions in tumor growth
same,reduction in percent change in tumor volume,"[1]; oral gavage 15 mg/kg, compared to the oral vehicle control",22%
same,tumor growth rates (in words),[1]; transdermal patch,significantly reduced absolute tumor volumes as well as tumor growth rates
same,tumor volume / tumor growth on the last day of the experiment (in words),[1]; transdermal patch,significantly reduced absolute tumor volumes
same,Cmax,in vivo,899 ng/mL
same,Tmax,in vivo,15 min
same,concentration at 0.25 h,in vivo,899 ng/mL
same,concentration at 0.5 h,in vivo,370 ng/mL
same,concentration at 1 h,in vivo,216 ng/mL
same,concentration at 2 h,in vivo,82.5 ng/mL
same,concentration at 4 h,in vivo,28.4 ng/mL
same,concentration at 8 h,in vivo,19.9 ng/mL
same,time of mean maximal plasma concentration,in vivo,15 min
same,AUC(0-t),in vivo; Mean AUC(0-24),774 ng·h/mL
same,AUC(0-t),in vivo; estimated exposure after 24 hours (AUC(0-8) multiplied by three),2320 ng·h/mL
same,"Difference in body weight (BW), Vehicle vs. Rasagiline PO",[2]; Day 1,0.4100
same,"Difference in percent change in body weight (% BW), Vehicle vs. Rasagiline PO",[2]; Day 1,0.0000%
same,"Difference in body weight (BW), Vehicle vs. Rasagiline PO",[2]; Day 4,−0.1100
same,"Difference in percent change in body weight (% BW), Vehicle vs. Rasagiline PO",[2]; Day 4,−2.229%
same,"Difference in body weight (BW), Vehicle vs. Rasagiline PO",[2]; Day 7,0.2200
same,"Difference in percent change in body weight (% BW), Vehicle vs. Rasagiline PO",[2]; Day 7,−0.7052%
same,"Difference in body weight (BW), Vehicle vs. Rasagiline PO",[2]; Day 10,0.3400
same,"Difference in percent change in body weight (% BW), Vehicle vs. Rasagiline PO",[2]; Day 10,−0.2490%
same,"Difference in body weight (BW), Vehicle vs. Rasagiline PO",[2]; Day 13,0.1700
same,"Difference in percent change in body weight (% BW), Vehicle vs. Rasagiline PO",[2]; Day 13,−1.053%
same,"Difference in body weight (BW), Vehicle vs. Rasagiline PO",[2]; Day 16,0.2800
same,"Difference in percent change in body weight (% BW), Vehicle vs. Rasagiline PO",[2]; Day 16,−0.4240%
same,"Difference in body weight (BW), Vehicle vs. Rasagiline PO",[2]; Day 22,−0.5500
same,"Difference in percent change in body weight (% BW), Vehicle vs. Rasagiline PO",[2]; Day 22,−4.072%
same,percent change in body weight (in words),"[2]; oral 15 mg/kg daily, compared with the no treatment group, 15 mg/kg",steadily reduced body weight from day 13 onwards
same,Maximum % of dose,[4]; Fat,8.47 % of dose
same,Time to maximal exposure,[4]; Fat,0.25
same,Maximum % of dose,[4]; Kidneys,3.89 % of dose
same,Time to maximal exposure,[4]; Kidneys,0.25
same,Maximum % of dose,[4]; Large intestine,1.83 % of dose
same,Time to maximal exposure,[4]; Large intestine,1
same,Maximum % of dose,[4]; Liver,13.20 % of dose
same,Time to maximal exposure,[4]; Liver,0.25
same,Maximum % of dose,[4]; Lung,1.46 % of dose
same,Time to maximal exposure,[4]; Lung,0.25
same,Maximum % of dose,[4]; Muscle,24.11 % of dose
same,Time to maximal exposure,[4]; Muscle,0.25
same,Maximum % of dose,[4]; Skin,13.20 % of dose
same,Time to maximal exposure,[4]; Skin,0.25
same,Maximum % of dose,[4]; Small intestine,8.76 % of dose
same,Time to maximal exposure,[4]; Small intestine,0.25
same,Maximum % of dose,[4]; Stomach,4.73 % of dose
same,Time to maximal exposure,[4]; Stomach,0.5
same,Maximum % of dose,[4]; Whole Blood,4.54 % of dose
same,Time to maximal exposure,[4]; Whole Blood,0.25
same,survival (in words),"[3]; orally or transdermally, 21 days",survived to the end of the study; also recorded: survived the dosing period
